Reference: paper PMC4250329 (Bioorganic & medicinal chemistry letters, 2014)
“Also recorded” adds a separate entry of the source. Where two headings read alike, the source gives them in different places.

Experiments:
[1] = tested on: IL-6-induced STAT3 tyrosine phosphorylation and nuclear translocation; assay: High content screen; assay type: cell-based; settings: for SI (STAT1/STAT3), selectivity index ratio: Table 3; for selectivity against pSTAT1 / activity (STAT3): summary of Table 3
[2] = tested on: JAK1; assay: Western blot of pJAK1/JAK1; assay type: cell-based; settings: Western blot analysis
[3] = tested on: JAK2; assay: Western blot of pJAK2/JAK2; assay type: cell-based; settings: Western blot analysis
[4] = tested on: four HNSCC cell lines (CAL33, FADU, 686 LN, OSC19); assay: Anti-proliferative activity in panel of HNSCC cell lines; assay type: cell-based
[5] = tested on: panel of >80 kinases; assay: Kinase panel; assay type: biochemical; settings: data not shown
[6] = tested on: IFNγ-induced activation of the STAT1 pathway; assay: HCS of IFNγ-induced STAT1 pathway activation; settings: for inhibition at 50 µM: read-out: inhibition of IFNγ-induced STAT1 activation
[7] = read-out: anti-proliferative activity

Cc1nc(Nc2nc(=O)cc(-c3ccccc3)[nH]2)nc2cc3c(cc12)OCO3 [19q]
SI (STAT1/STAT3), selectivity index ratio [1]: >3

Cc1cc2nc(Nc3nc(=O)c(C)c(C)[nH]3)nc(C)c2cc1C [19n]
selectivity against pSTAT1 [1]: ≥ 3 fold

CCOc1ccc2nc(NC3=NC(C)=CC(C)(C)N3)nc(C)c2c1 [11a, 6-ethoxy-4-methylquinazoline-2-amino-dihydro-trimethylpyrimidine]
effects on pJAK1/JAK1 [2]: no effects; also recorded: did not show any effects | effects on pJAK2/JAK2 [3]: no effects; also recorded: did not show any effects | IC50 ([4]; read-out: anti-proliferative activities IC50's): 17 to 37 µM | activity against a panel of >80 kinases [5]: did not exhibit any significant activity | effect on IFNγ-induced activation of the STAT1 pathway ([6]; at 50 μM): no effect | inhibition at 50 µM [6]: < 50%

CC1=CC(C)(C)N=C(Nc2nc(C)c3cc(C)ccc3n2)N1 [11b]
improved potency compared to the original hit 11a ([1]; STAT3, text b9): 4 fold | potency against STAT3 ([1]; summary b20): low-micromolar potency | IC50 [4, 7]: 1 to 50 µM | inhibition at 50 µM [6]: < 50%

Cc1cc(C)c2nc(Nc3nc(C)c(C)c(O)n3)nc(C)c2c1 [19b]
SI (STAT1/STAT3), selectivity index ratio [1]: >7 | selectivity against pSTAT1 [1]: ≥ 3 fold

CCOc1ccc2c(C)nc(NC3=NC(C)=CC(C)(C)N3)nc2c1 [11d]
inhibition at 50 µM [6]: < 50%

CC1=CC(C)(C)N=C(Nc2nc(C)c3cc(C)cc(C)c3n2)N1 [11c]
potency against STAT3 ([1]; summary b20): low-micromolar potency | improvement in STAT3 inhibition ([1]; versus 11a): 20 fold | IC50 [4, 7]: 1 to 50 µM

Cc1[nH]c(Nc2nc(C)c3cc4c(cc3n2)OCO4)nc(=O)c1C [19p]
activity (STAT3) [1]: completely abolished activity

CCOc1ccc2nc(Nc3nc(=O)cc(C)[nH]3)nc(C)c2c1 [19e]
activity (STAT3) [1]: completely abolished activity

CC(C)(C)c1nc2c3ccc(F)cc3c3c(=O)[nH]ccc3c2[nH]1 [compound 6, reference compound]
potency against STAT3 [1]: nanomolar potencies | potency against STAT1 [6]: nanomolar potencies
